Reference: the NIST ThermoML archive (doi:10.1016/j.tca.2018.11.018)

Key:
[1] = Molar enthalpy of transition or fusion; settings: DSC
[2] = for Triple point temperature: Crystal 2, DSC
[3] = xn = mol fraction of the nth substance listed; settings: 100 kPa, Liquid, x2 = 0; for viscosity: Falling or rolling sphere viscometry; for mass density: Vibrating tube method

CCCC[n+]1ccccc1.[Br-] [1-butylpyridinium bromide]
Settings	Molar enthalpy of transition or fusion [kcal/mol]	Normal melting temperature [°C]
[1], Crystal 1	4.71	–
[2], Crystal 1, DTA	–	103.68

CCCC[N+]1(C)CCCCC1.[Br-] [N-butyl-N-methylpiperidinium bromide]
Settings	Molar enthalpy of transition or fusion [kcal/mol]	Normal melting temperature [°C]
[1], Crystal 2	0.0153	–
[2], Crystal 1, DTA	–	240.67

Settings	Triple point temperature [K]
[2]	339.53

CC[N+]1(C)CCCCC1.[Br-] [N-ethyl-N-methylpiperidinium bromide]
Settings	Molar enthalpy of transition or fusion [kcal/mol]	Normal melting temperature [°C]
[1], Crystal 1	3.94	–
[2], Crystal 1, DTA	–	109.24

CCCC[N+](CC)(CC)CC.[Br-] [butyltriethyl ammonium bromide]
Settings	Molar enthalpy of transition or fusion, Crystal 2 [kcal/mol]	Normal melting temperature, Crystal 1, DTA [°C]	Normal melting temperature, Crystal 1, visual observation [°C]
[1]	2.68	–	–
[2]	–	216.87	217.0

Settings	Triple point temperature [K]
[2]	444.65

O [water]
Settings	Normal melting temperature [°C]
[2], Crystal, visual observation	0.1

O [water] + CCCC[N+]1(C)CCCCC1.[Br-]
[3]
Settings	mass density [kg/m3]	viscosity [mPa·s]
298.15 K	–	0.89
303.15 K	–	0.797
308.15 K	–	0.719
313.15 K	–	0.653
318.15 K	990.1	0.596
323.15 K	987.9	0.547
328.15 K	985.6	0.504
333.15 K	983.2	0.466
338.15 K	980.3	0.433
343.15 K	978.1	0.404
348.15 K	974.8	0.378

O [water] + CCCC[N+](CC)(CC)CC.[Br-]
[3]
Settings	mass density [kg/m3]	viscosity [mPa·s]
298.15 K	–	0.89
303.15 K	–	0.797
308.15 K	–	0.719
313.15 K	–	0.653
318.15 K	990.1	0.596
323.15 K	987.9	0.547
328.15 K	985.6	0.504
333.15 K	983.2	0.466
338.15 K	980.3	0.433
343.15 K	978.1	0.404
348.15 K	974.8	0.378

O [water] + CCCC[n+]1ccccc1.[Br-]
[3]
Settings	mass density [kg/m3]	viscosity [mPa·s]
298.15 K	–	0.89
303.15 K	–	0.797
308.15 K	–	0.719
313.15 K	–	0.653
318.15 K	990.1	0.596
323.15 K	987.9	0.547
328.15 K	985.6	0.504
333.15 K	983.2	0.466
338.15 K	980.3	0.433
343.15 K	978.1	0.404
348.15 K	974.8	0.378

O [water] + CC[N+]1(C)CCCCC1.[Br-]
[3]
Settings	mass density [kg/m3]	viscosity [mPa·s]
298.15 K	–	0.89
303.15 K	–	0.797
308.15 K	–	0.719
313.15 K	–	0.653
318.15 K	990.1	0.596
323.15 K	987.9	0.547
328.15 K	985.6	0.504
333.15 K	983.2	0.466
338.15 K	980.3	0.433
343.15 K	978.1	0.404
348.15 K	974.8	0.378
